Measurements: the supplement of paper PMC10307832

Tests used:
Experiment in all cases: relative viability (nuclei count vs DMSO), 5 days (fraction); higher = more cells survive
[1] = compound: O=C(Nc1cc(C(F)(F)F)cc(C(F)(F)F)c1)c1cc(Cl)ccc1O [IMD-0354] + CC(=O)c1c(C)c2cnc(Nc3ccc(N4CCNCC4)cn3)nc2n(C2CCCC2)c1=O [Palbociclib] (partner 0.5 µM)
Summary of the method: (§1)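 The day after seeding in 1536-well plates, lung cancer cell lines were treated by pin tool with a single drug, or with a fixed anchor-drug dose together with five library-drug doses (not always all listed) in √10 steps. After 5 days, a combined fix-and-stain solution (final 0.05% Triton X-100, 1% formaldehyde, 1 ug/ml Hoechst) was added. Nuclei counted on 4× images gave relative viability as treated counts over vehicle counts, reported as the median of duplicate plates.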

[2] = compound: O=C(Nc1cc(C(F)(F)F)cc(C(F)(F)F)c1)c1cc(Cl)ccc1O [IMD-0354] + Cc1cc(Nc2cc(N3CCN(C)CC3)nc(Sc3ccc(NC(=O)C4CC4)cc3)n2)n[nH]1 [Tozasertib] (partner 0.1 µM)
Summary of the method: as §1

[3] = compound: O=C(Nc1cc(C(F)(F)F)cc(C(F)(F)F)c1)c1cc(Cl)ccc1O [IMD-0354] + Cc1nc(NC(=O)N2CCC[C@H]2C(N)=O)sc1-c1ccnc(C(C)(C)C(F)(F)F)c1 [Alpelisib] (partner 2 µM)
Summary of the method: as §1

[4] = compound: O=C(Nc1cc(C(F)(F)F)cc(C(F)(F)F)c1)c1cc(Cl)ccc1O [IMD-0354] + N=C(N)NC(=N)NCCc1ccccc1 [Phenformin] (partner 250 µM)
Summary of the method: as §1

Cell Line | relative viability ([1]; first compound 0.04 µM) | relative viability ([1]; first compound 0.1265 µM) | relative viability ([1]; first compound 0.4 µM) | relative viability ([1]; first compound 1.265 µM) | relative viability ([1]; first compound 4 µM) | relative viability ([2]; first compound 0.04 µM) | relative viability ([2]; first compound 0.1265 µM) | relative viability ([2]; first compound 0.4 µM) | relative viability ([2]; first compound 1.265 µM) | relative viability ([2]; first compound 4 µM) | relative viability ([3]; first compound 0.04 µM) | relative viability ([3]; first compound 0.1265 µM) | relative viability ([3]; first compound 0.4 µM) | relative viability ([3]; first compound 1.265 µM) | relative viability ([3]; first compound 4 µM) | relative viability ([4]; first compound 0.04 µM) | relative viability ([4]; first compound 0.1265 µM) | relative viability ([4]; first compound 0.4 µM) | relative viability ([4]; first compound 1.265 µM) | relative viability ([4]; first compound 4 µM)
201T | 0.35 | 0.387 | 0.294 | 0.375 | 0.28 | 1.14 | 0.996 | 0.614 | 1.06 | 0.354 | 1.02 | 1.08 | 0.683 | 1.1 | 0.351 | 0.524 | 0.465 | 0.322 | 0.286 | 0.303
A549 | – | – | – | – | – | – | – | – | – | – | 0.776 | 0.695 | 0.509 | 0.0677 | 0.0557 | 0.23 | 0.106 | 0.0873 | 0.03 | 0.0515
A-427 | 0.516 | 0.525 | 0.441 | 0.157 | 0.158 | 0.204 | 0.211 | 0.232 | 0.137 | 0.148 | 1.04 | 1.13 | 0.815 | 0.69 | 0.104 | 0.379 | 0.209 | 0.247 | 0.105 | 0.112
ABC-1 | 0.638 | 0.778 | 0.69 | – | 0.432 | 0.169 | 0.181 | 0.174 | 0.118 | 0.161 | 1.15 | 1.1 | 0.887 | 0.375 | 0.252 | 0.227 | 0.207 | 0.224 | 0.197 | 0.194
BEN | 0.432 | 0.428 | 0.359 | 0.411 | 0.318 | 0.53 | 0.51 | 0.329 | 0.468 | 0.452 | 1.11 | 0.915 | 0.498 | 0.442 | 0.245 | 0.248 | 0.267 | 0.229 | 0.179 | 0.174
CAL-12T | 0.633 | 0.423 | 0.325 | 0.189 | 0.164 | 0.399 | 0.307 | 0.242 | 0.278 | 0.111 | 1.49 | 1.31 | 0.596 | 0.267 | 0.173 | 0.623 | 0.512 | 0.252 | 0.117 | 0.134
COR-L23 | 0.303 | 0.278 | 0.185 | 0.122 | 0.12 | 0.197 | 0.159 | 0.175 | 0.0719 | 0.101 | 0.728 | 0.776 | 0.427 | 0.136 | 0.164 | 0.466 | 0.373 | 0.263 | 0.108 | 0.0986
COR-L 105 | 0.404 | 0.395 | 0.394 | 0.33 | 0.284 | 0.379 | 0.311 | 0.394 | 0.341 | 0.207 | 1.06 | 0.76 | 0.902 | 0.604 | 0.287 | 0.659 | 0.462 | 0.39 | 0.183 | 0.211
Calu-6 | – | – | – | – | – | – | – | – | – | – | 0.925 | 0.909 | 0.672 | 0.101 | 0.0892 | – | – | – | – | –
ChaGo-K-1 | 0.844 | 0.917 | 0.55 | 0.473 | 0.236 | 0.226 | 0.196 | 0.236 | 0.171 | 0.176 | – | – | – | – | – | 0.584 | 0.544 | 0.318 | 0.225 | 0.199
EBC-1 | – | – | – | – | – | – | – | – | – | – | 0.882 | 0.788 | 0.559 | 0.174 | 0.227 | – | – | – | – | –
EKVX | 0.383 | 0.343 | – | 0.29 | 0.215 | 0.382 | 0.397 | 0.269 | 0.456 | 0.149 | 0.931 | 0.992 | – | 0.73 | 0.179 | 0.254 | 0.234 | 0.196 | 0.106 | 0.132
EMC-BAC-2 | 0.534 | 0.522 | 0.423 | 0.35 | 0.34 | 0.276 | 0.301 | 0.24 | 0.296 | 0.224 | 0.796 | 0.766 | 0.448 | 0.611 | 0.25 | 0.52 | 0.441 | 0.24 | 0.155 | 0.218
EPLC-272H | 0.267 | 0.343 | 0.349 | 0.356 | 0.131 | 0.256 | 0.241 | 0.16 | 0.24 | 0.113 | 1.04 | 0.893 | 0.648 | 0.842 | 0.374 | 0.34 | 0.199 | 0.304 | 0.0841 | 0.0653
H3255 | 0.33 | 0.331 | 0.306 | 0.275 | 0.274 | 0.631 | 0.602 | 0.493 | 0.586 | 0.387 | 0.723 | 0.793 | 0.46 | 0.364 | 0.241 | 0.338 | 0.364 | 0.345 | 0.288 | 0.332
HARA | 0.237 | 0.202 | 0.314 | 0.195 | 0.204 | 0.102 | 0.132 | 0.105 | 0.0599 | 0.0875 | 0.942 | 0.724 | 0.503 | 0.141 | 0.169 | 0.422 | 0.47 | 0.154 | 0.0947 | 0.0925
HCC-15 | 0.733 | 0.664 | 0.627 | 0.289 | 0.1 | 0.331 | 0.379 | 0.31 | 0.17 | 0.098 | 0.861 | 0.853 | 0.466 | 0.272 | 0.0938 | 0.466 | 0.37 | 0.188 | 0.0833 | 0.165
HCC-44 | 1.06 | 0.964 | 0.922 | 0.661 | 0.452 | 0.955 | 0.899 | 0.706 | 0.351 | 0.17 | 0.857 | 0.728 | 0.379 | 0.185 | 0.134 | 0.241 | 0.32 | 0.193 | 0.139 | 0.105
